Measured values reported in patent US12655385B2, “Cell culture compositions with antioxidants and methods for polypeptide production” (Genentech, Inc., priority 2013, dated 2026).
Counter-ions that a name gives are not always drawn.

Experiments:
[1] = system: antibody producing CHO cells; experiment: 2-liter stirred bioreactor fed-batch cell culture in Media 1/Media 2 with hypotaurine or carboxymethylcysteine; assay type: cell-based, Chinese Hamster; conditions: for Growth as measured by VCC: 12.95 mM hypotaurine or 10 mM carboxymethylcysteine in Media 1 (FIG. 7A); for cell viability: 12.95 mM hypotaurine or 10 mM carboxymethylcysteine in Media 1 (FIG. 7B); for antibody titer (HPLC): 12.95 mM hypotaurine or 10 mM carboxymethylcysteine in Media 1 (FIG. 8)
Protocol: Antibody producing CHO cells were inoculated at approximately 1.0×10^6 cells/mL in 2-liter stirred bioreactors (Applikon, Foster City, CA) containing 1 L of basal Media 1 supplemented with 12.95 mM hypotaurine or 10 mM carboxymethylcysteine (CAS number 638-23-3). Cells were cultured in fed-batch mode with addition of 100 mL of feed Media 2 per liter of cell culture fluid at days 3, 6 and 9 for initiation of the production phase. A positive control was included by culturing cells in Media 1 and 2 without hypotaurine supplementation. The concentration of glucose was analyzed every day and if the glucose concentration fell below 2 g/L, it was replenished from a […] stock solution of glucose for prevention of glucose depletion. Reactors were equipped with calibrated dissolved oxygen, pH and temperature probes. Dissolved oxygen was controlled on-line through sparging with air and/or oxygen. pH was controlled through addition of CO2 or Na2CO3 and antifoam was added to the cultures as needed. The cell cultures were maintained at pH 7.0 and a temperature of 37° C. from days 0 through 3, and then at 35° C. after day 3. The cell cultures were agitated at 275 rpm and the dissolved oxygen level was at 30% of air saturation. Osmolality was monitored using an osmometer from Advanced Instruments (Norwood, MA). Offline pH and metabolite concentrations were also determined daily using a Nova Bioprofile 400 (Nova Biomedical, Waltham, MA). VCC and cell viability was measured daily using a ViCell® automated cell counter (Beckman Coulter, Fullerton, CA). The cell culture fluid was collected daily by centrifuging 1 mL of cell culture fluid for determination of antibody titer using high performance liquid chromatography. At the end of the cell culture duration on day 14, when the amount of protein in the culture was approximately 2-10 g/L, the cell culture fluid from all samples was harvested by centrifugation. The monoclonal antibody in the harvested cell culture fluid was purified using protein A affinity chromatography. The protein A pool was concentrated to 150 g/L using Amicon Centricon centrifugal filter devices (Millipore Corporation, Billerica, MA). Color intensity of the concentrated antibody composition was measured in the concentrated protein A pool using two different assays wherein higher numerical values indicated higher color intensity and lower numerical values indicated lower color intensity. […] This color intensity reduction was confirmed by using a second color assay which detected an approximate 17% and 13% color intensity reduction in antibody compositions isolated from cell cultured in media supplemented with hypotaurine and carboxymethylcysteine, respectively (FIG. 9B).

[2] = system: monoclonal antibody; experiment: Screen of taurine, carnosine and aminoguanidine in culture media, relative color intensity of antibody; conditions: 27.2 g/L aminoguanidine hydrochloride, 7 days 37° C. 250 rpm (FIG. 10)
Protocol: In order to identify a compound that reduces in antibody compositions and works under cell culture conditions, a screen assay in cell free medium was conducted. Taurine, carnosine and aminoguanidine were chosen for screening. These compounds were dissolved in 25 mL culture media at the concentration of 1.2 g/L (taurine), 13.6 g/L (carnosine), and 27.2 g/L (aminoguanidine hydrochloride). After pH adjustment to a range from 6.8 to 7.2 and sterile filtration with Steriflip filter units (Millipore, Billerica, MA) the solution was incubated in 50 mL Falcon tubes (BD Biosciences, San Jose, CA) equipped with TubeSpin caps (TPP Techno Plastic Products AG, Trasadingen, Switzerland). CHO cells were incubated for 7 days in a moisture controlled cell culture incubator at 37° C. and 250 rpm with no protection from light to produce the monoclonal antibody.
The monoclonal antibody in the harvested cell culture fluid (HCCF) and the incubation broth was further purified with affinity chromatography. Color intensity of the concentrated antibody composition was measured in the purified pool using an assay wherein higher numerical values indicated higher color intensity and lower numerical values indicated lower color intensity.
The relative color intensity for antibodies produced in culture medium containing taurine, carnosine, or aminoguanidine are shown in FIG. 10.

[3] = system: IgG1 monoclonal antibody; experiment: Antioxidant screening: incubation of Media 1/Media 2 mixture spiked with antibody, color intensity of purified antibody; conditions: 1X test concentration (hypotaurine 9.16 mM, taurine 5.00 mM), 5 days 37° C.; normalized to positive control
Protocol: For antioxidant screening, a total volume of 40 ml media was prepared by mixing 1 part basal Media 1 and 0.3 part feed Media 2 to mirror a representative ratio of media used in cell culture conditions (Table 5). […] The samples were incubated at 37° C. with shaking at 250 rpm for a five day incubation period.
After incubation, the monoclonal antibody was purified using affinity chromatography. Color intensity of the concentrated antibody composition was measured in the purified pool using an assay wherein higher numerical values indicate higher color intensity and lower numerical values indicate lower color intensity. The numerical results were normalized to the positive control, where the value for the positive control was set at 0% change in color intensity.

[4] = listed as carboxy methyl cysteine

N[C@@H](CSCC(=O)O)C(=O)O [carboxymethylcysteine, (2R)-2-amino-3-[(carboxymethyl)sulfanyl]propanoic acid]
Growth as measured by VCC [1]: comparable among all cell cultures tested
Growth as measured by VCC [1, 4]: did not compromise
cell viability [1]: comparable among all cell cultures tested
cell viability [1, 4]: did not compromise
antibody titer (HPLC) [1]: comparable levels of antibody titers
antibody titer (HPLC) [1, 4]: did not significantly reduce
color intensity reduction of antibody compositions, second color assay ([1]; 12.95 mM hypotaurine or 10 mM carboxymethylcysteine, protein A pool concentrated to 150 g/L (FIG. 9B)): ~13%

N=C(N)NN [aminoguanidine, aminoguanidine hydrochloride]
decrease of color [2]: about 71%

NCCS(=O)(=O)O [Taurine, 2-aminoethane-1-sulfonic acid]
reduction of color intensity of the antibody-containing compositions [3]: approximately 5%
